# Read-outs that look alike come from different tables or passages of the source.
# Experiments:
# [1] = system: Colletotrichum lindemuthianum; experiment: in vitro-Test with fungal microorganisms, Method A (tables D1-D8); assay type: cell-based; settings: Colletotrichum lindemuthianum, read-out: Efficacy %
# Method: (§1) Example: In Vitro-Test with Fungal Microorganisms
# (§2) Wells of 96-well microtiter plates are filled with 10 μl of a preparation of test compound or compound combination in methanol+emulsifier alkylaryl-polyglycol-ether. Thereafter, the solvent is evaporated in a hood. At the next step, 100 μl of liquid potato dextrose medium is given into each well, that has been amended with an appropriate concentration of spores or mycelium suspension of the test fungus.
# (§3) With the aid of a photometer, the extinction in all wells is measured at the wavelength of 620 nm.
# (§4) The microtiter plates are incubated at 20° C. and 85% relative humidity. The inhibition of growth is determined again photometrically 3-5 days after the application. Efficacy is calculated in relation to the untreated control, 0% efficacy means fungal growth as high as in untreated control while 100% efficacy means no fungal growth is measured.
# (§5) The data in tables A1 to A12, B1 to B14, C1 to C10, D1 to D8, E1 to E8, F1 to F11, G1 to G4, H1 to H4 and I1 to I5 were collected according to Method A. The data in tables A13 to A22, B15 to B18, C11 to C20, E9 to E16, F12 to F15, G5 to G15, H5 to H8, I6 to I11 and J1 to J11 were collected according to Method B.
# Cordana musae [2] = experiment: in vitro-Test with fungal microorganisms, Method B (tables E9-E16); assay type: cell-based; settings: Neocordana musae, single active, read-out: Efficacy
# Procedure, shortened: (§6)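 Cpd in MeOH + alkylaryl-polyglycol-ether, solvent evaporated; liquid medium + fungal spores/mycelium added; OD600 read; 3–7 d, 20° C., 85% RH; growth inhibition by photometry, % efficacy vs untreated ctrl.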
# Botrytis cinerea [3] = experiment: in vitro-Test with fungal microorganisms, Method A (tables B1-B14); assay type: cell-based; settings: Botrytis cinerea
# Procedure, shortened: (§7)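 Readout: extinction at 620 nm, measured at start and again 3-5 days later, giving efficacy versus untreated control (0% = control growth, 100% = no growth). Compounds were evaporated from methanol/emulsifier before adding potato dextrose medium with fungal spores or mycelium; incubation 20° C, 85% RH.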
# [4] = system: Ustilago segetum var. avenae; experiment: in vitro-Test with fungal microorganisms, Method A (tables I1-I5); assay type: cell-based; settings: alone, read-out: Efficacy %
# Method: as §1, §2, §3, §4, §5
# Cercospora beticola [5] = experiment: in vitro-Test with fungal microorganisms, Method A (tables C1-C10); assay type: cell-based; settings: Cercospora beticola, read-out: Efficacy %
# Procedure, shortened: as §7
# [6] = system: Ustilago segetum var. avenae; experiment: in vitro-Test with fungal microorganisms, Method B (tables I6-I11); assay type: cell-based; settings: 1 ppm; read-out: Efficacy %
# Procedure, shortened: as §6
# Cercospora beticola [7] = experiment: in vitro-Test with fungal microorganisms, Method B (tables C11-C20); assay type: cell-based; settings: Cercospora beticola, read-out: Efficacy %
# Procedure, shortened: as §6
# Botrytis cinerea [8] = experiment: in vitro-Test with fungal microorganisms, Method B (tables B15-B18); assay type: cell-based; settings: Botrytis cinerea, alone, read-out: Efficacy %
# Method: as §1
# as §2, with “30” for “10”, “200” for “100”, “growth” for “potato dextrose”, “given,” for “given into each well,”
# With the aid of a photometer, the extinction in all wells is measured at the wavelength of 600 nm.
# The microtiter plates are incubated for 3 to 7 days at 20° C. and 85% relative humidity. After the incubation inhibition of growth is determined photometrically. Efficacy is calculated in relation to the untreated control, 0% efficacy means fungal growth as high as in untreated control while 100% efficacy means no fungal growth is measured.
# as §5
# Cordana musae [9] = experiment: in vitro-Test with fungal microorganisms, Method A (tables E1-E8); assay type: cell-based; settings: Neocordana musae, single substance, read-out: Efficacy %
# Method: as §1, §2, §3, §4, §5
# Colletotrichum coccodes = experiment: in vitro-Test with fungal microorganisms, Method B (tables J1-J11); assay type: cell-based; settings: Colletotrichum coccodes, read-out: Efficacy %
# Procedure, shortened: as §6
# Fusarium culmorum = experiment: in vitro-Test with fungal microorganisms, Method A (tables G1-G4); assay type: cell-based
# Method: as §1, §2, §3, §4, §5
# Alternaria alternate = experiment: in vitro-Test with fungal microorganisms, Method A (tables A1-A12); assay type: cell-based, Alternaria alternata; settings: Alternaria, applied alone, read-out: Efficacy %
# Procedure, shortened: as §7
# Alternaria alternata = experiment: in vitro-Test with fungal microorganisms, Method B (tables A13-A22); assay type: cell-based; settings: Alternaria alternata, read-out: Efficacy
# Procedure, shortened: as §6
# Diaporthe citri = experiment: in vitro-Test with fungal microorganisms, Method A (tables F1-F11); assay type: cell-based; settings: Diaporthe citri, read-out: Efficacy
# Procedure, shortened: as §7
smiles,measurement,setting,value
"O=C1c2ccccc2C(=O)N1SC(Cl)(Cl)Cl [(5.012) folpet, folpet]",inhibition of growth at 0.08 ppm,"[1]; mixing partner alone, 0.08 ppm",0%
same,inhibition of growth at 0.4 ppm,"[1]; mixing partner alone, 0.4 ppm",0%
same,inhibition of growth at 2 ppm,"[1]; mixing partner alone, 2.0 ppm",100%
same,inhibition of growth at 10 ppm,"[1]; mixing partner alone, 10.0 ppm",100%
same,inhibition of growth at 0.08 ppm,[1]; single active at 0.08 ppm,0%
same,inhibition of growth at 0.4 ppm,[1]; single active at 0.4 ppm,13%
same,inhibition of growth at 2 ppm,[1]; single active at 2.0 ppm,98%
same,inhibition of growth at 10 ppm,[1]; single active at 10.0 ppm,100%
same,inhibition of growth at 0.008 ppm,Cordana musae [2]; 0.008 ppm,0%
same,inhibition of growth at 0.04 ppm,Cordana musae [2]; 0.04 ppm,0%
same,inhibition of growth at 0.2 ppm,Cordana musae [2]; 0.2 ppm,17%
same,inhibition of growth at 1 ppm,Cordana musae [2]; 1 ppm,62%
same,inhibition of growth at 2 ppm,"Botrytis cinerea [3]; alone, 2.0 ppm, read-out: Efficacy %",100%
same,inhibition of growth at 10 ppm,"Botrytis cinerea [3]; alone, 10.0 ppm, read-out: Efficacy %",100%
same,inhibition of growth at 0.4 ppm,[4]; 0.4 ppm,15%
same,inhibition of growth at 2 ppm,[4]; 2.0 ppm,100%
same,inhibition of growth at 10 ppm,[4]; 10.0 ppm,100%
same,inhibition of growth at 0.4 ppm,Cercospora beticola [5]; 0.4 ppm,50%
same,inhibition of growth at 1 ppm,[6],6%
same,inhibition of growth at 0.008 ppm,Cercospora beticola [7]; 0.008 ppm,7%
same,inhibition of growth at 1 ppm,Cercospora beticola [7],100%
same,inhibition of growth at 0.04 ppm,"Cercospora beticola [7]; single compound, 0.04 ppm",0%
same,inhibition of growth at 0.2 ppm,"Cercospora beticola [7]; single compound, 0.2 ppm",16%
same,inhibition of growth at 1 ppm,Cercospora beticola [7]; single compound,86%
same,inhibition of growth at 0.008 ppm,Botrytis cinerea [8]; 0.008 ppm,8%
same,inhibition of growth at 0.04 ppm,Botrytis cinerea [8]; 0.04 ppm,1%
same,inhibition of growth at 1 ppm,Botrytis cinerea [8]; 1 ppm,16%
same,inhibition of growth at 0.08 ppm,Cordana musae [9]; 0.08 ppm,5%
same,inhibition of growth at 0.4 ppm,Cordana musae [9]; 0.4 ppm,10%
same,inhibition of growth at 2 ppm,Cordana musae [9]; 2.0 ppm,100%
same,inhibition of growth at 0.008 ppm,Colletotrichum coccodes; 0.008 ppm,1%
same,inhibition of growth at 0.04 ppm,Colletotrichum coccodes; 0.04 ppm,3%
same,inhibition of growth at 1 ppm,Colletotrichum coccodes; 1 ppm,66%
same,Efficacy,Fusarium culmorum; 0.4 ppm alone,0%
same,Efficacy,"Fusarium culmorum; 10.0 ppm, alone",100%
same,inhibition of growth at 0.08 ppm,"Fusarium culmorum; Fusarium culmorum, 0.08 ppm, alone, read-out: Efficacy",0%
same,inhibition of growth at 2 ppm,"Fusarium culmorum; Fusarium culmorum, 2.0 ppm, alone, read-out: Efficacy",100%
same,inhibition of growth at 2 ppm,Alternaria alternate; 2.0 ppm,100%
same,inhibition of growth at 10 ppm,Alternaria alternate; 10.0 ppm,100%
same,inhibition of growth at 0.2 ppm,Alternaria alternata,6%
same,inhibition of growth at 1 ppm,Alternaria alternata,99%
same,inhibition of growth at 0.008 ppm,"Alternaria alternata; single compound, 0.008 ppm",6%
same,inhibition of growth at 0.04 ppm,"Alternaria alternata; single compound, 0.04 ppm",3%
same,inhibition of growth at 0.2 ppm,Alternaria alternata; single compound,7%
same,inhibition of growth at 1 ppm,Alternaria alternata; single compound,83%
same,inhibition of growth at 0.08 ppm,"Diaporthe citri; Table F10, 0.08 ppm alone",12%
same,inhibition of growth at 2 ppm,"Diaporthe citri; Table F10, 2.0 ppm alone",99%
same,inhibition of growth at 10 ppm,"Diaporthe citri; Table F10, 10.0 ppm alone",100%
same,inhibition of growth at 0.08 ppm,"Diaporthe citri; applied alone, 0.08 ppm",1%
same,inhibition of growth at 0.4 ppm,"Diaporthe citri; applied alone, 0.4 ppm",56%
same,inhibition of growth at 2 ppm,"Diaporthe citri; applied alone, 2.0 ppm",99%
"Cc1cc(C2=NOCC(Cc3ccc(Br)cc3C)N2)c(Oc2cccc(Cl)c2F)nn1 (racemic) [Compound I-300, rac-5-[(4-bromo-2-methylphenyl)methyl]-3-[3-(3-chloro-2-fluorophenoxy)-6-methylpyridazin-4-yl]-5,6-dihydro-4H-1,2,4-oxadiazine]",inhibition of growth at 0.0008 ppm,"Botrytis cinerea [3]; 0.0008 ppm, read-out: Efficacy",0%
same,inhibition of growth at 0.004 ppm,"Botrytis cinerea [3]; 0.004 ppm, read-out: Efficacy",0%
same,inhibition of growth at 0.02 ppm,"Botrytis cinerea [3]; 0.02 ppm, read-out: Efficacy",0%
same,inhibition of growth at 0.1 ppm,"Botrytis cinerea [3]; 0.1 ppm, read-out: Efficacy",49%
same,inhibition of growth at 0.0008 ppm,[4]; 0.0008 ppm,0%
same,inhibition of growth at 0.004 ppm,[4]; 0.004 ppm,0%
same,inhibition of growth at 0.02 ppm,[4]; 0.02 ppm,0%
same,inhibition of growth at 0.1 ppm,[4]; 0.1 ppm,0%
same,inhibition of growth at 0.0008 ppm,Cercospora beticola [5]; 0.0008 ppm alone,0%
same,inhibition of growth at 0.0008 ppm,Cercospora beticola [5]; 0.0008 ppm,0%
same,inhibition of growth at 0.004 ppm,Cercospora beticola [5]; 0.004 ppm alone,0%
same,inhibition of growth at 0.004 ppm,Cercospora beticola [5]; 0.004 ppm,0%
same,inhibition of growth at 0.02 ppm,Cercospora beticola [5]; 0.02 ppm alone,10%
same,inhibition of growth at 0.02 ppm,Cercospora beticola [5]; 0.02 ppm,10%
same,inhibition of growth at 0.1 ppm,Cercospora beticola [5]; 0.1 ppm alone,19%
same,inhibition of growth at 0.1 ppm,Cercospora beticola [5]; 0.1 ppm,19%
same,inhibition of growth at 0.0008 ppm,"Fusarium culmorum; Fusarium culmorum, 0.0008 ppm, alone, read-out: Efficacy",2%
same,inhibition of growth at 0.004 ppm,"Fusarium culmorum; Fusarium culmorum, 0.004 ppm, alone, read-out: Efficacy",6%
same,inhibition of growth at 0.02 ppm,"Fusarium culmorum; Fusarium culmorum, 0.02 ppm, alone, read-out: Efficacy",5%
same,inhibition of growth at 0.1 ppm,"Fusarium culmorum; Fusarium culmorum, 0.1 ppm, alone, read-out: Efficacy",2%
same,inhibition of growth at 0.1 ppm,Alternaria alternate; 0.1 ppm,100%
same,inhibition of growth at 0.0008 ppm,"Diaporthe citri; applied alone, 0.0008 ppm",0%
same,inhibition of growth at 0.004 ppm,"Diaporthe citri; applied alone, 0.004 ppm",10%
same,inhibition of growth at 0.02 ppm,"Diaporthe citri; applied alone, 0.02 ppm",22%
same,inhibition of growth at 0.1 ppm,"Diaporthe citri; applied alone, 0.1 ppm",44%
